What was measured:
Type in all cases: in vivo
[1] = tested on: Poa; experiment: Pre-emergence test/Greenhouse, Poa; settings: after three weeks
Procedure, shortened: (§1)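 Percent damage relative to untreated control plants, scored three weeks after treatment, is the read-out (0% meaning no effect). Treatment consisted of watering the soil with an emulsified aqueous preparation roughly 24 h after seeds were sown, at constant water volume per area.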

[2] = tested on: Gallium; experiment: Post-emergence test/greenhouse, Gallium; settings: greenhouse, after three weeks
Procedure: (§2) Solvent: 5 parts by weight of acetone
(§3) Emulsifier: 1 part by weight of alkylaryl polyglycol ether
(§4) To produce a suitable preparation of active compound, 1 part by weight of active compound is mixed with the stated amount of solvent, the stated amount of emulsifier is added and the concentrate is diluted with water to the desired concentration.
(§5) Test plants which have a height of 5-15 cm are sprayed with the preparation of the active compound in such a way as to apply the particular amounts of active compound desired per unit area. The concentration of the spray liquor is chosen so that the particular amounts of active compound desired are applied in 2000 l of water/ha.
(§6) After three weeks, the degree of damage to the plants is rated in % damage in comparison to the development of the untreated control.
(§7) 0%=no action (like untreated control)

[3] = tested on: Matricaria; experiment: Post-emergence test/greenhouse, Matricaria; settings: greenhouse, after three weeks
Procedure: as §2, §3, §4, §5, §6, §7

[4] = tested on: Ambrosia; experiment: Pre-emergence test/Greenhouse, Ambrosia; settings: after three weeks
Procedure, shortened: as §1

[5] = tested on: Solanum; experiment: Pre-emergence test/Greenhouse, Solanum; settings: after three weeks
Procedure, shortened: as §1

[6] = tested on: Sorghum; experiment: Post-emergence test/greenhouse, Sorghum; settings: greenhouse, after three weeks
Procedure: as §2, §3, §4, §5, §6, §7

[7] = tested on: Lolium; experiment: Post-emergence test/greenhouse, Lolium; settings: greenhouse, after three weeks
Procedure: as §2, §3, §4, §5, §6, §7

[8] = tested on: weeds; experiment: Post-emergence test (greenhouse), activity against weeds; settings: in words
Procedure: as §2, §3, §4, §5, §6, §7

[9] = tested on: Amaranthus; experiment: Post-emergence test/greenhouse, Amaranthus; settings: greenhouse, after three weeks
Procedure: as §2, §3, §4, §5, §6, §7

[10] = tested on: Lolium; experiment: Pre-emergence test/Greenhouse, Lolium; settings: after three weeks
Procedure, shortened: as §1

[11] = tested on: Echinochloa; experiment: Post-emergence test/greenhouse, Echinochloa; settings: greenhouse, after three weeks
Procedure: as §2, §3, §4, §5, §6, §7

[12] = tested on: Soya beans; experiment: Pre-emergence test/Greenhouse, Soya beans; settings: in vivo
Procedure, shortened: as §1

[13] = tested on: weeds; experiment: Pre-emergence test (greenhouse), activity against weeds; settings: in words
Procedure, shortened: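 Compound formulated in acetone with alkylaryl polyglycol ether emulsifier, diluted in water, and watered onto soil about 24 h after sowing, dosed by application rate per unit area. Damage rated after three weeks as % versus untreated control (0% = no action).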

[14] = tested on: Maize; experiment: Pre-emergence test/Greenhouse, Maize; settings: in vivo
Procedure, shortened: as §1

[15] = tested on: Digitaria; experiment: Post-emergence test/greenhouse, Digitaria; settings: greenhouse, after three weeks
Procedure: as §2, §3, §4, §5, §6, §7

[16] = tested on: Maize; experiment: Post-emergence test/greenhouse, Maize; settings: greenhouse, after three weeks
Procedure: as §2, §3, §4, §5, §6, §7

[17] = tested on: Sorghum; experiment: Pre-emergence test/Greenhouse, Sorghum; settings: after three weeks
Procedure, shortened: as §1

[18] = tested on: Stellaria; experiment: Post-emergence test/greenhouse, Stellaria; settings: greenhouse, after three weeks
Procedure: as §2, §3, §4, §5, §6, §7

[19] = tested on: Matricaria; experiment: Pre-emergence test/Greenhouse, Matricaria; settings: after three weeks
Procedure, shortened: as §1

Compound	degree of damage to the plants (% damage vs untreated control), Poa ([1]; 60 g of ai./ha) [%]	degree of damage, Gallium ([2]; 60 g of ai./ha) [%]	degree of damage, Matricaria ([3]; 60 g of ai./ha) [%]	degree of damage to the plants (% damage vs untreated control), Ambrosia ([4]; 60 g of ai./ha) [%]	degree of damage to the plants (% damage vs untreated control), Solanum ([5]; 60 g of ai./ha) [%]	degree of damage, Sorghum ([6]; 60 g of ai./ha) [%]	degree of damage, Lolium ([7]; 60 g of ai./ha) [%]	activity against weeds [8]	degree of damage, Amaranthus ([9]; 60 g of ai./ha) [%]	degree of damage to the plants (% damage vs untreated control), Lolium ([10]; 60 g of ai./ha) [%]	degree of damage, Echinochloa ([11]; 60 g of ai./ha) [%]	degree of damage to the plants (% damage vs untreated control), Soya beans [12] [%]	activity against weeds [13]	degree of damage to the plants (% damage vs untreated control), Maize [14] [%]	degree of damage, Digitaria ([15]; 60 g of ai./ha) [%]	degree of damage, Maize ([16]; 60 g of ai./ha) [%]	degree of damage to the plants (% damage vs untreated control), Sorghum ([17]; 60 g of ai./ha) [%]	degree of damage, Stellaria ([18]; 60 g of ai./ha) [%]	degree of damage to the plants (% damage vs untreated control), Matricaria ([19]; 60 g of ai./ha) [%]	degree of damage to the plants (% damage vs untreated control), Poa ([1]; 15 g of ai./ha) [%]	further results
COCc1nn(C(=O)NS(=O)(=O)c2c(C)csc2C(=O)OC)c(=O)n1C [Example 32]	95	70	80	95	95	95	70	very strong activity against weeds	95	95	100	20	very strong activity against weeds	20	70	70	60	90	95	–	–
COC(=O)c1scc(C)c1S(=O)(=O)NC(=O)n1nc(OC)n(C)c1=O [Example 31]	–	–	–	–	–	–	–	very strong activity against weeds	–	–	–	–	very strong activity against weeds	10	–	–	–	–	–	95	degree of damage, Gallium ([2]; 30 g of ai./ha): 80%; degree of damage, Matricaria ([3]; 30 g of ai./ha): 100%; degree of damage to the plants (% damage vs untreated control), Ambrosia ([4]; 15 g of ai./ha): 95%; degree of damage to the plants (% damage vs untreated control), Solanum ([5]; 15 g of ai./ha): 95%; degree of damage, Sorghum ([6]; 30 g of ai./ha): 80%; degree of damage, Lolium ([7]; 30 g of ai./ha): 90%; degree of damage, Amaranthus ([9]; 30 g of ai./ha): 100%; degree of damage to the plants (% damage vs untreated control), Lolium ([10]; 15 g of ai./ha): 95%; degree of damage, Echinochloa ([11]; 30 g of ai./ha): 95%; degree of damage, Digitaria ([15]; 30 g of ai./ha): 95%; degree of damage, Maize ([16]; 30 g of ai./ha): 5%; degree of damage to the plants (% damage vs untreated control), Sorghum ([17]; 15 g of ai./ha): 80%; degree of damage, Stellaria ([18]; 30 g of ai./ha): 95%; degree of damage to the plants (% damage vs untreated control), Matricaria ([19]; 15 g of ai./ha): 95%
COCc1nn(C(=O)NS(=O)(=O)c2c(C)csc2C(=O)OC)c(=O)n1C1CC1 [Example 28]	95	80	90	95	95	95	60	very strong activity against weeds	100	95	80	–	very strong activity against weeds	0	90	10	95	100	95	–	–
CCOc1nn(C(=O)NS(=O)(=O)c2c(C)cccc2C(=O)OC)c(=O)n1C [Example 163]	–	95	100	–	–	95	80	very strong activity against weeds	100	–	70	0	very strong activity against weeds	20	80	60	–	95	–	–	degree of damage to the plants (% damage vs untreated control), Poa ([1]; 4 g of ai./ha): 95%; degree of damage to the plants (% damage vs untreated control), Ambrosia ([4]; 4 g of ai./ha): 80%; degree of damage to the plants (% damage vs untreated control), Solanum ([5]; 4 g of ai./ha): 90%; degree of damage to the plants (% damage vs untreated control), Lolium ([10]; 4 g of ai./ha): 80%; degree of damage to the plants (% damage vs untreated control), Sorghum ([17]; 4 g of ai./ha): 60%
COC(=O)c1cccc(C)c1S(=O)(=O)NC(=O)n1nc(SCCF)n(C2CC2)c1=O [Example 151]	–	–	–	–	–	–	–	very strong activity against weeds	–	–	–	10	very strong activity against weeds	20	–	–	–	–	–	90	degree of damage, Gallium ([2]; 30 g of ai./ha): 90%; degree of damage, Matricaria ([3]; 30 g of ai./ha): 90%; degree of damage to the plants (% damage vs untreated control), Ambrosia ([4]; 15 g of ai./ha): 80%; degree of damage to the plants (% damage vs untreated control), Solanum ([5]; 15 g of ai./ha): 90%; degree of damage, Sorghum ([6]; 30 g of ai./ha): 90%; degree of damage, Lolium ([7]; 30 g of ai./ha): 60%; degree of damage, Amaranthus ([9]; 30 g of ai./ha): 95%; degree of damage to the plants (% damage vs untreated control), Lolium ([10]; 15 g of ai./ha): 90%; degree of damage, Echinochloa ([11]; 30 g of ai./ha): 70%; degree of damage, Digitaria ([15]; 30 g of ai./ha): 90%; degree of damage, Maize ([16]; 30 g of ai./ha): 60%; degree of damage to the plants (% damage vs untreated control), Sorghum ([17]; 15 g of ai./ha): 50%; degree of damage, Stellaria ([18]; 30 g of ai./ha): 90%; degree of damage to the plants (% damage vs untreated control), Matricaria ([19]; 15 g of ai./ha): 90%
